Measured values: ChEMBL document CHEMBL3227967, “Quantitative structure-activity relationships in 1-aryl-2-(alkylamino)ethanol antimalarials” (J Med Chem, 1979)

Test system: Plasmodium berghei
Experiment: Antimalarial activity against Plasmodium berghei
Format: functional

| SMILES | log(1/C) |
| --- | --- |
| C=C[C@H]1CN2CC[C@H]1C[C@H]2[C@H](O)c1ccnc2ccc(OC)cc12 [QUININE] | 2.06 |
| CCCC(CCC)NCC(O)c1cc(/C=C/c2ccc(C(F)(F)F)cc2)nc(/C=C/c2ccc(C(F)(F)F)cc2)c1 (stereo not drawn) | 4.24 |
| CCCCCCCN(CCCCCCC)CC(O)c1cc2c(Cl)cc(Cl)cc2c2cc(C(F)(F)F)ccc12 (stereo not drawn) | 3.53 |
| CCCCN(CCCC)CC(O)c1cc(-c2ccc(OC)cc2)nc(-c2ccc(OC)cc2)c1 (stereo not drawn) | 2.17 |
| CCCCCCCN(CCCCCCC)CC(O)c1cc2ccc(C(F)(F)F)cc2c2ccccc12 (stereo not drawn) | 3.12 |
| CCCCN(CCCC)CC(O)c1cc(-c2ccc(Cl)c(Cl)c2)cc2cc(Cl)c(OC)cc12 (stereo not drawn) | 3.06 |
| CCCCN(CCCC)CC(O)c1cc(OCC)nc2ccccc12 (stereo not drawn) | 2.24 |
| CCCCCCCN(CCCCCCC)CC(O)c1cc2ccccc2c2ccccc12 (stereo not drawn) | 2.87 |
| CCCCN(CCCC)CC(O)c1cc(-c2ccc(O)cc2)nc2c(Cl)cc(Cl)cc12 (stereo not drawn) | 2.66 |
| CCCN(CCC)CC(O)c1cc2c(Cl)cc(Cl)cc2c2cc(Cl)ccc12 (stereo not drawn) | 4.19 |
| CCCCN(CCCC)CC(O)c1cc(Cl)nc2ccccc12 (stereo not drawn) | 2.14 |
| OC(CC1CCCCN1)c1cc(C(F)(F)F)nc2ccc(C(F)(F)F)cc12 (stereo not drawn) | 3.65 |
| CN1CCN(CC(O)c2cc(-c3ccc(Cl)cc3)nc3cc(Cl)ccc23)CC1 (stereo not drawn) | 2.66 |
| CC(C)CN(C)CC(O)c1cc(-c2ccc(Cl)cc2)nc(-c2ccc(Cl)cc2)c1 (stereo not drawn) | 3.29 |
| OC(CC1CCCCN1)c1cc2cc(C(F)(F)F)ccc2c2ccccc12 (stereo not drawn) | 4.39 |
| OC(CC1CCCCN1)c1cc2ccc(C(F)(F)F)cc2c2cc(Cl)c(Cl)cc12 (stereo not drawn) | 4.02 |
| OC(CC1CCCCN1)c1cc2c(Cl)cc(Cl)cc2c2cc(Cl)ccc12 (stereo not drawn) | 4.12 |
| CCCCN(CCCC)CC(O)c1cc(-c2ccc(Cl)cc2)nc(-c2ccc(Cl)cc2)c1.O=C(O)CCC(=O)O (stereo not drawn) | 3.71 |
| CCCCN(CCCC)CC(O)c1cc2ccc(C(F)(F)F)cc2c2sccc12 (stereo not drawn) | 2.98 |
| CCCCN(CCCC)CC(O)c1cc(-c2ccc(Br)cc2)nc(-c2ccc(Br)cc2)c1 (stereo not drawn) | 3.31 |
| CCCCN(CCCC)CC(O)c1c(Cl)cc2ccc(-c3ccc(Cl)cc3)nc2c1Cl (stereo not drawn) | 3.02 |
| CCCCCCCN(CCCCCCC)CC(O)c1cc2c(Br)cccc2c2cc(Br)ccc12 (stereo not drawn) | 3.33 |
| CCCCN(CCCC)CC(O)c1cc2cc(Cl)cc(Cl)c2c2cc(SC)ccc12 (stereo not drawn) | 3.88 |
| CCCN(CCC)CC(O)c1cc2cc(Cl)ccc2c2cc(Cl)ccc12 (stereo not drawn) | 4.06 |
| CCCCCCC[N+]([O-])(CCCCCCC)CC(O)c1cc2ccccc2c2cc(Br)ccc12 (stereo not drawn) | 3.43 |

| SMILES | log(1/C) |
| --- | --- |
| CCN(CC)CC(O)c1cc(Cl)cc2ccc(-c3ccc(Cl)cc3)nc12 (stereo not drawn) | 2.12 |
| CCOc1ccc2nccc(C(O)C[N+]34CCC(CC3)C(CC)C4)c2c1 (stereo not drawn) | 1.97 |
| CCN(CC)CCC(O)c1cc2ccc(C(F)(F)F)cc2c2cc(C(F)(F)F)ccc12 (stereo not drawn) | 4.12 |
| CCN(CC)CC(O)c1cc2cc(Cl)ccc2c2cc(Cl)ccc12 (stereo not drawn) | 4.06 |
| OC(CC1CCCCN1)c1cc(-c2ccccc2)nc2ccccc12 (stereo not drawn) | 2.37 |
| CCCCCN(CCCCC)CC(O)c1cccc2c1ccc1ccccc12 (stereo not drawn) | 2.33 |
| CCCCCCN(CCCCCC)CC(O)c1cc2ccccc2c2ccccc12 (stereo not drawn) | 2.4 |
| CCN(CC)CC(O)c1cc(-c2ccc(Cl)c(Cl)c2)nc(-c2ccc(Cl)c(Cl)c2)c1 (stereo not drawn) | 3.04 |
| CCCCN(CCCC)CC(O)c1cc(-c2ccc(Cl)cc2)nc2cc(Cl)c(C)cc12 (stereo not drawn) | 4.22 |
| CCCCCCCN(CCCCCCC)CC(O)c1cc2c(Br)cccc2c2cc(C(F)(F)F)ccc12 (stereo not drawn) | 3.43 |
| CCCCN(CCCC)CC(O)c1cc2cc(Cl)c(Cl)cc2c2c(Cl)c(Cl)ccc12 (stereo not drawn) | 4.18 |
| CCCCCCCN(CCCCCCC)CC(O)c1cc(-c2ccc(Cl)cc2)cc2ccc(OC)cc12 (stereo not drawn) | 4.18 |
| OC(CNC12CC3CC(CC(C3)C1)C2)c1cc(-c2ccc(Cl)cc2)nc2cc(Cl)ccc12 (stereo not drawn) | 3.24 |
| CCCCN(CCCC)CC(O)c1c(Cl)c(-c2ccc(Cl)cc2)nc2c(Cl)cc(Cl)cc12 (stereo not drawn) | 3.87 |
| CCCCN(CCCC)CC(O)c1cc(Cc2ccccc2)nc2c(Cl)cccc12 (stereo not drawn) | 2.3 |
| CCCC[N+]([O-])(CCCC)CC(O)c1cc(-c2ccc(Cl)cc2)nc(-c2ccc(Cl)cc2)c1 (stereo not drawn) | 3.57 |
| CCCCN(CCCC)CC(O)c1cc2cc(Cl)cc(Cl)c2c2ccc(Cl)cc12 (stereo not drawn) | 4.12 |
| CCCCCCCN(CCCCCCC)CC(O)c1cc(-c2ccc(Cl)cc2)cc2ccccc12 (stereo not drawn) | 3.35 |
| CCCCCCN(CCCCCC)CC(O)c1cccc2ccc3ccccc3c12 (stereo not drawn) | 2.2 |
| CCCCN(CCCC)CC(O)c1cc(C(=O)c2cc(C(F)(F)F)cc(C(F)(F)F)c2)nc2c(Cl)cc(Cl)cc12 (stereo not drawn) | 4.64 |
| CCCCN(CCCC)CCC(O)c1cc(-c2ccc(Cl)c(Cl)c2)nc2c(Cl)cc(Cl)cc12 (stereo not drawn) | 4.67 |
| CCCCN(CCCC)CC(O)c1cc(Oc2cccc(C(C)(F)F)c2)nc2c(Cl)cc(Cl)cc12 (stereo not drawn) | 2.76 |
| CCCCN(CCCC)CC(O)c1cc(Oc2ccc(Cl)c(Cl)c2)cc2c(Cl)cc(Cl)cc12 (stereo not drawn) | 2.49 |
| CCCCCCN(CCCCCC)CC(O)c1cc(-c2ccc(Cl)cc2)nc2cc(OC)c(Cl)cc12 (stereo not drawn) | 2.8 |
| CCCCN(CCCC)CC(O)c1cc(-c2ccc(Cl)cc2)nc2cc(C(F)(F)F)ccc12 (stereo not drawn) | 4.14 |

| SMILES | log(1/C) |
| --- | --- |
| CCCN(CCC)CC(O)c1cc2ccc(Br)cc2c2cc(Br)ccc12 (stereo not drawn) | 3.95 |
| CCCCCCCN(CCCCCCC)CC(O)c1cccc2c1ccc1cc(Cl)c(Cl)cc12 (stereo not drawn) | 2.55 |
| CCCCN(CCCC)CC(O)c1cccc2c1ccc1cc(Cl)c(Cl)cc12 (stereo not drawn) | 2.96 |
| CCN(CC)CC(O)c1cc(-c2ccc(C)cc2)nc2c(C)cc(C)cc12 (stereo not drawn) | 2.8 |
| CCCCN(CCCC)CC(O)c1cc(-c2ccc(Cl)cc2)nc(-c2ccc(OC)cc2)c1 (stereo not drawn) | 2.84 |
| CCCCN(CCCC)CC(O)c1c2ccccc2cc2ccccc12 (stereo not drawn) | 2.35 |
| CCCCN(CCCC)CC(O)c1cc2cc(Cl)ccc2c2cc(C(F)(F)F)ccc12 (stereo not drawn) | 3.69 |
| CCCCN(CCCC)CC(O)c1cc(-c2ccc(Cl)cc2)nc(-c2ccc(Br)cc2)c1 (stereo not drawn) | 3.36 |
| CCNC(C)(C)CC(O)c1cc(C(F)(F)F)nc2c(C(F)(F)F)cccc12 (stereo not drawn) | 2.54 |
| CC(C)NCC(O)c1cc2ccc(C(F)(F)F)cc2c2cc(C(F)(F)F)ccc12 (stereo not drawn) | 3.8 |
| CCCCN(CCCC)CC(O)c1cccc2ccc3cccc(Cl)c3c12 (stereo not drawn) | 2.3 |
| CCCCN(CCCC)CC(O)c1cc(C(C)(C)C)nc2c1cc(C)c1ccccc12 (stereo not drawn) | 2.32 |
| OC(CCC1CCCCN1)c1cc2ccc(Cl)cc2c2cc(Cl)ccc12 (stereo not drawn) | 3.89 |
| CCN(CC)C(CO)CC(O)c1cc(-c2cccs2)nc2ccc(Cl)cc12 (stereo not drawn) | 2.12 |
| CN(C)CC(O)c1cc(-c2ccc(Cl)cc2)nc(-c2ccc(Cl)cc2)c1 (stereo not drawn) | 3.18 |
| CCCCCCCN(CCCCCCC)CC(O)c1cc2ccc(Cl)c(Cl)c2c2cc(C(F)(F)F)ccc12 (stereo not drawn) | 3.92 |
| CCCCCCN(CCCCCC)CC(O)c1cc(-c2ccc(Cl)cc2)nc2c(C)cc(C)cc12 (stereo not drawn) | 3.75 |
| Cc1ccc(-c2cc(C(O)CC3CCCCN3)c3cc(C)cc(C)c3n2)cc1 (stereo not drawn) | 3.11 |
| C=C[C@H]1CN2CC[C@H]1C[C@H]2[C@H](O)c1cc(-c2ccccc2)nc2ccc(OC)cc12 | 2.72 |
| Cc1ccc2c(C(O)CC3CCCCN3)cc3ccc(C(F)(F)F)cc3c2c1 (stereo not drawn) | 3.16 |
| CCCCN(CCCC)CC(O)c1cc(-c2ccc(Cl)cc2)nc(-c2ccc(Cl)cc2)c1 (stereo not drawn) | 3.84 |
| CCCCN(CCCC)CC(O)c1cc2cc(Cl)ccc2c2c(Cl)cc(Cl)cc12 (stereo not drawn) | 3.91 |
| Cc1ccc2nc(Nc3ccc(Cl)cc3)cc(C(O)CC3CCCCN3)c2c1 (stereo not drawn) | 2.87 |
| CCCCN(CCCC)CC(O)c1cc(-c2cccc(C(F)(F)F)c2)nc2c(Cl)cc(Cl)cc12 (stereo not drawn) | 3.93 |
| OC(CCNC1CCCCC1)c1cc2ccc(C(F)(F)F)cc2c2cc(C(F)(F)F)ccc12 (stereo not drawn) | 4.53 |

| SMILES | log(1/C) |
| --- | --- |
| CCCCCCCN(CCCCCCC)CC(O)c1cc(-c2ccc(Cl)c(Cl)c2)cc2cc(Cl)c(OC)cc12 (stereo not drawn) | 2.58 |
| OC(CC1CCCCN1)c1cc2ccc(C(F)(F)F)cc2c2cc(C(F)(F)F)ccc12 (stereo not drawn) | 3.99 |
| CCCCN(CCCC)CC(O)c1cc2ccc(Br)cc2c2cc(C)sc12 (stereo not drawn) | 2.44 |
| CCCCN(CCCC)CC(O)c1cc2c(Cl)cc(Cl)cc2c2ncccc12 (stereo not drawn) | 2.94 |
| OC(CNC1CCCCC1)c1cc2ccc(C(F)(F)F)cc2c2cc(C(F)(F)F)ccc12 (stereo not drawn) | 3.72 |
| CCCCCCCCN(CCCCCCCC)CCC(O)c1cc2c(O)cccc2c2ccccc12 (stereo not drawn) | 2.65 |
| CCC(CC)NCC(O)c1cc2ccc(C(F)(F)F)cc2c2cc(C(F)(F)F)ccc12 (stereo not drawn) | 4.2 |
| CCCCNC(C)(C)CC(O)c1cc(C(F)(F)F)nc2c(C(F)(F)F)cccc12 (stereo not drawn) | 3.27 |
| CCCCCCCN(CCCCCCC)CC(O)c1cc2ccc(Cl)cc2c2cc(Cl)ccc12 (stereo not drawn) | 3.12 |
| CCCCCCN(CCCCCC)CC(O)c1cc(-c2ccc(OC)c(OC)c2)nc2ccc(Cl)cc12 (stereo not drawn) | 3.32 |
| CCCCN(CCCC)CC(O)c1ccc(Cl)c2ncccc12 (stereo not drawn) | 2.16 |
| CCCCCCCN(CCCCCCC)CC(O)c1cc2c(Cl)cc(Cl)cc2c2cc(C)sc12 (stereo not drawn) | 3.48 |
| CCCCNCC(O)c1cc(-c2ccc(Cl)cc2)cc2cc(Cl)ccc12 (stereo not drawn) | 3.29 |
| CCCCCCCNCC(O)c1cc(-c2ccc(C(F)(F)F)cc2)nc(-c2ccc(C(F)(F)F)cc2)c1 (stereo not drawn) | 3.67 |
| OC(CC1CCCCN1)c1cc2c(Cl)cc(Cl)cc2c2ccccc12 (stereo not drawn) | 3.73 |
| CCCCN(CCCC)CC(O)c1cc(C23CC4CC(CC(C4)C2)C3)nc2c(Cl)cc(Cl)cc12 (stereo not drawn) | 3.29 |
| CCCCCN(CCCCC)CC(O)c1cc2ccc(Br)cc2c2cc(Br)ccc12 (stereo not drawn) | 3.72 |
| CCCCN(CCCC)CC(O)c1c2ccccc2cc2cc(Cl)c(Cl)cc12 (stereo not drawn) | 2.89 |
| CCCCCCCN(CCCCCCC)CC(O)c1cccc2cc3ccccc3cc12 (stereo not drawn) | 2.99 |
| CCCCN(CCCC)CC(O)c1cc2ccccc2c2ccc(Cl)cc12 (stereo not drawn) | 2.51 |
| CCCCN(CCCC)CC(O)c1cc(C(=O)c2ccc(C(F)(F)F)cc2)nc2c(Cl)cc(Cl)cc12 (stereo not drawn) | 4.86 |
| CCCCN(CCCC)CC(O)c1cc(-c2ccccc2)nc(-c2ccccc2)c1 (stereo not drawn) | 2.51 |
| CCCCN(CCCC)CC(O)c1cc2ccc(C(F)(F)F)cc2c2ccsc12 (stereo not drawn) | 2.81 |
